Converted amounts (≈) assume the structure as drawn.
How the values were obtained:
Type in all cases: physicochemical
[1] = Approximate solubility of Compound 1 in various solvents (stepwise solvent addition); conditions: thermodynamic from solid, read-out: Solubility [S, mg/mL]
Method: To determine approximate solubility of Compound 1, solvent was added in steps to the solid material (about 20 to 100 mg). The solubility values were rough approximations. Therefore, these values were used solely for the preliminary design of subsequent crystallization experiments.

[2] = Exact solubility of Compound 1 Form A in selected solvent systems (1 day suspension, HPLC); conditions: for solubility at 1 day: thermodynamic from solid
Method: (§1) The exact solubilities of Compound 1 Form A in selected solvent systems were determined at 24° C. and 60° C. About 100 mg of Compound 1 Form A were suspended in 2.0 mL of solvent and stirred using a magnetic stirrer bar for 1 day at 24° C. or 60° C., followed by filter centrifugation at the corresponding temperature. The concentration of Compound 1 was then determined by HPLC.
as §1, with “solubilities of Form A” for “solubilities of Compound 1 Form A”, “Compound 1 were suspended” for “Compound 1 Form A were suspended”

[3] = Chemical stability when stirring suspension at 75° C. (Experiment No. 26); conditions: 1-propanol/0.01 M NaOH aq 1:2 v/v; stirring at 75° C. overnight
Method: Experiment No. 26 tested seeding behavior at 75° C. at the 16 g scale as well as chemical stability when stirring suspensions at 75° C. for extended times.
16.02 g of Compound 1 were placed in a 300 mL glass reactor (diameter 70 mm) and 200 mL of 1-propanol/0.01 M NaOH aq 1:2 v/v were added at room temperature. The suspension was stirred using a two-bladed impeller (diameter 40 mm; 500 rpm) and heated to 90° C. in 30 minutes. After stirring at 90° C. for about 15 minutes (500 rpm) the solution formed was cooled to 75° C. with a cooling rate of 15K/hour and stirred at 75° C. for 10 minutes.
At 75° C. the solution was seeded with a suspension of 158 mg of crude Compound 1 in 5 mL of water. The weak suspension formed was stirred at 75° C. overnight followed by hot filtration (sintered glass funnel, porosity P4, diameter 65 mm; the suspension was easy to filter). The glass reactor was flushed with 20 mL of water and the washing suspension was also filtered. The filter cake was again washed with 20 mL of water and air dried for 20 minutes by drawing ambient air through the glass funnel.

Structure (SMILES): Cc1nc(N)c2c(C(N)=O)cn([C@@H]3O[C@H](CO)[C@@H](O)[C@H]3O)c2n1 [Compound 1, 4-amino-7-((2R,3R,4S,5R)-3,4-dihydroxy-5-(hydroxymethyl)tetrahydrofuran-2-yl)-2-methyl-7H-pyrrolo[2,3-d]pyrimidine-5-carboxamide]
- solubility ([1]; aqueous buffer, NaOH aq 0.1M, 60° C.): ~9 mg/mL (≈ 27.8 mM)
- solubility ([1]; aqueous buffer, NaOH aq 0.1M, RT): ~3 mg/mL (≈ 9.28 mM)
- solubility ([1]; aqueous buffer, NaOH aq 0.5M, 60° C.): ~38 mg/mL (≈ 118 mM)
- solubility ([1]; aqueous buffer, NaOH aq 0.5M, RT): ~16 mg/mL (≈ 49.5 mM)
- solubility ([1]; aqueous buffer, NaOH aq 1M, 60° C.): ~95 mg/mL (≈ 294 mM)
- solubility ([1]; aqueous buffer, NaOH aq 1M, RT): ~60 mg/mL (≈ 186 mM)
- solubility ([1]; aqueous with cosolvent or surfactant or cyclodextrin, 1-Propanol/water 1:2 v/v, RT): ~6 mg/mL (≈ 18.6 mM)
- solubility ([1]; aqueous with cosolvent or surfactant or cyclodextrin, 1-Propanol/water 1:2 v/v, at 80° C.): ~51 mg/mL (≈ 158 mM)
- solubility ([1]; aqueous with cosolvent or surfactant or cyclodextrin, 1-Propanol/water 2:1 v/v, RT): ~7 mg/mL (≈ 21.7 mM)
- solubility ([1]; aqueous with cosolvent or surfactant or cyclodextrin, 2-Propanol/NaOH aq 0.1M 1:1 v/v, RT): ~16 mg/mL (≈ 49.5 mM)
- solubility ([1]; aqueous with cosolvent or surfactant or cyclodextrin, 2-Propanol/water 1:1 v/v, RT): ~7 mg/mL (≈ 21.7 mM)
- solubility ([1]; aqueous with cosolvent or surfactant or cyclodextrin, 2-Propanol/water 1:2 v/v, RT): ~5 mg/mL (≈ 15.5 mM)
- solubility ([1]; aqueous with cosolvent or surfactant or cyclodextrin, 2-Propanol/water 1:2 v/v, at 70° C.): ~31 mg/mL (≈ 95.9 mM)
- solubility ([1]; aqueous with cosolvent or surfactant or cyclodextrin, 2-Propanol/water 2:1 v/v, RT): ~6 mg/mL (≈ 18.6 mM)
- solubility ([1]; aqueous with cosolvent or surfactant or cyclodextrin, DMSO/NaOH aq 0.1M 1:1 v/v, RT): ~20 mg/mL (≈ 61.9 mM)
- solubility ([1]; aqueous with cosolvent or surfactant or cyclodextrin, DMSO/water 1:1 v/v, RT): ~8 mg/mL (≈ 24.7 mM)
- solubility ([1]; aqueous with cosolvent or surfactant or cyclodextrin, DMSO/water 1:1 v/v, at 80° C.): ~45 mg/mL (≈ 139 mM)
- solubility ([1]; aqueous with cosolvent or surfactant or cyclodextrin, DMSO/water 1:2 v/v, RT): ~3 mg/mL (≈ 9.28 mM)
- solubility ([1]; aqueous with cosolvent or surfactant or cyclodextrin, THF/water 1:1 v/v, RT): ~22 mg/mL (≈ 68 mM)
- solubility ([1]; aqueous with cosolvent or surfactant or cyclodextrin, THF/water 1:4 v/v, RT): ~6 mg/mL (≈ 18.6 mM)
- solubility ([1]; aqueous with cosolvent or surfactant or cyclodextrin, THF/water 4:1 v/v, RT): ~15 mg/mL (≈ 46.4 mM)
- solubility ([1]; organic solvent or mixture, DMSO, RT): ~500 mg/mL (≈ 1550 mM)
- solubility ([1]; organic solvent or mixture, Ethanol, RT): 1.7 mg/mL (≈ 5.26 mM)
- solubility ([1]; organic solvent or mixture, THF, RT): < 1 mg/mL
- solubility ([1]; Water, 60° C.): ~3 mg/mL (≈ 9.28 mM)
- solubility ([1]; Water, RT): < 1.3 mg/mL
- solubility at 1 day ([2]; 0.1 M aqueous NaOH, aqueous buffer, NaOH aq 0.1M, 24° C.): 2.8 mg/mL (≈ 8.66 mM)
- solubility at 1 day ([2]; 0.1 M aqueous NaOH, aqueous buffer, NaOH aq 0.1M, 60° C.): 8 mg/mL (≈ 24.7 mM)
- solubility at 1 day ([2]; DMSO/0.01 M aqueous NaOH 1:2 v/v, aqueous with cosolvent or surfactant or cyclodextrin, DMSO/NaOH aq 0.01M 1:2 v/v, 24° C.): 4.8 mg/mL (≈ 14.8 mM)
- solubility at 1 day ([2]; DMSO/0.01 M aqueous NaOH 1:2 v/v, aqueous with cosolvent or surfactant or cyclodextrin, DMSO/NaOH aq 0.01M 1:2 v/v, 60° C.): 19.6 mg/mL (≈ 60.6 mM)
- solubility at 1 day ([2]; DMSO/0.1 M aqueous NaOH 1:2 v/v, aqueous with cosolvent or surfactant or cyclodextrin, DMSO/NaOH aq 0.1M 1:2 v/v, 24° C.): 12.5 mg/mL (≈ 38.7 mM)
- solubility ([2]; NaOH aq 0.01M, 24° C.): 0.81 mg/mL (≈ 2.51 mM)
- solubility at 1 day ([2]; aqueous with cosolvent or surfactant or cyclodextrin, 1-Propanol/NaOH aq 0.01M 1:3 v/v, 24° C.): 6.8 mg/mL (≈ 21 mM)
- solubility at 1 day ([2]; aqueous with cosolvent or surfactant or cyclodextrin, 1-Propanol/NaOH aq 0.01M 1:3 v/v, 60° C.): 25.9 mg/mL (≈ 80.1 mM)
- solubility at 1 day ([2]; aqueous with cosolvent or surfactant or cyclodextrin, 1-Propanol/NaOH aq 0.1M 1:3 v/v, 24° C.): 16.6 mg/mL (≈ 51.3 mM)
- solubility at 1 day ([2]; aqueous with cosolvent or surfactant or cyclodextrin, 1-Propanol/water 1:2 v/v, 60° C.): 30.9 mg/mL (≈ 95.6 mM)
- solubility at 1 day ([2]; aqueous with cosolvent or surfactant or cyclodextrin, 2-Propanol/NaOH aq 0.01M 1:3 v/v, 24° C.): 5.2 mg/mL (≈ 16.1 mM)
- solubility at 1 day ([2]; aqueous with cosolvent or surfactant or cyclodextrin, 2-Propanol/NaOH aq 0.01M 1:3 v/v, 60° C.): 16.9 mg/mL (≈ 52.3 mM)
- solubility at 1 day ([2]; aqueous with cosolvent or surfactant or cyclodextrin, 2-Propanol/NaOH aq 0.1M 1:3 v/v, 24° C.): 14.1 mg/mL (≈ 43.6 mM)
- solubility at 1 day ([2]; aqueous with cosolvent or surfactant or cyclodextrin, 2-Propanol/water 1:2 v/v, 60° C.): 26.6 mg/mL (≈ 82.3 mM)
- solubility at 1 day ([2]; aqueous with cosolvent or surfactant or cyclodextrin, DMSO/water 1:1 v/v, 60° C.): 18.7 mg/mL (≈ 57.8 mM)
- solubility at 1 day ([2]; aqueous with cosolvent or surfactant or cyclodextrin, Ethanol/NaOH aq 0.01M 1:3 v/v, 24° C.): 3.3 mg/mL (≈ 10.2 mM)
- solubility at 1 day ([2]; aqueous with cosolvent or surfactant or cyclodextrin, Ethanol/NaOH aq 0.01M 1:3 v/v, 60° C.): 15.3 mg/mL (≈ 47.3 mM)
- solubility at 1 day ([2]; aqueous with cosolvent or surfactant or cyclodextrin, Ethanol/NaOH aq 0.1M 1:3 v/v, 24° C.): 9 mg/mL (≈ 27.8 mM)
- chemical stability of suspension [3]: chemically stable
